Assay results from article PMC11487561 (ACS Chemical Neuroscience, 2024).

Experiments:
human M1 = human M1 (Homo sapiens, UniProt P11229); assay: Calcium mobilization assay, muscarinic selectivity; type: cell-based
human M2 = human M2 (Homo sapiens, UniProt P08172); assay: Calcium mobilization assay, muscarinic selectivity; type: cell-based
Adrenergic α1D = target: T1, Adrenergic α1D (Homo sapiens, UniProt P25100); assay: Lead Profiling Screen – Eurofins Panlabs; type: binding; settings: read-out: % inh at 10 μM
T1 construct: Eurofins Panlabs (contract screen)
T1 sequence (P25100 whole entry): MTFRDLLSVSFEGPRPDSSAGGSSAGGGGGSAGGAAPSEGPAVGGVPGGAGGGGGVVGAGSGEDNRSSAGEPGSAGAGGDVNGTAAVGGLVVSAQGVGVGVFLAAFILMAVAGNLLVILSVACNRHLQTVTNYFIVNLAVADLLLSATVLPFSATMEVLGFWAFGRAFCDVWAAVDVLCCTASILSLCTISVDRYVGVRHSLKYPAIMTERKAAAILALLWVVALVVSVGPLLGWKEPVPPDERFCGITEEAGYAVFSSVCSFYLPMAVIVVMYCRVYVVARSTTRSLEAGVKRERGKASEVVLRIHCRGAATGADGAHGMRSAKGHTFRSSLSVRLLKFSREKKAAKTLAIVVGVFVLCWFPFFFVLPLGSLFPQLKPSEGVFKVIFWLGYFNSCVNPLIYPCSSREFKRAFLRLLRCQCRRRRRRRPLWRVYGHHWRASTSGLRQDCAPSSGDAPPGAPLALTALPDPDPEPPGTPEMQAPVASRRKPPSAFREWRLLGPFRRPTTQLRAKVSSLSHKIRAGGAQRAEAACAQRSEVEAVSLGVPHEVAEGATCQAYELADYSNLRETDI

Cannabinoid CB1 = target: T2, Cannabinoid CB1 (Homo sapiens, UniProt P21554); assay: Lead Profiling Screen – Eurofins Panlabs; type: binding; settings: read-out: % inh at 10 μM
T2 construct: Eurofins Panlabs (contract screen)
T2 sequence (P21554 whole entry): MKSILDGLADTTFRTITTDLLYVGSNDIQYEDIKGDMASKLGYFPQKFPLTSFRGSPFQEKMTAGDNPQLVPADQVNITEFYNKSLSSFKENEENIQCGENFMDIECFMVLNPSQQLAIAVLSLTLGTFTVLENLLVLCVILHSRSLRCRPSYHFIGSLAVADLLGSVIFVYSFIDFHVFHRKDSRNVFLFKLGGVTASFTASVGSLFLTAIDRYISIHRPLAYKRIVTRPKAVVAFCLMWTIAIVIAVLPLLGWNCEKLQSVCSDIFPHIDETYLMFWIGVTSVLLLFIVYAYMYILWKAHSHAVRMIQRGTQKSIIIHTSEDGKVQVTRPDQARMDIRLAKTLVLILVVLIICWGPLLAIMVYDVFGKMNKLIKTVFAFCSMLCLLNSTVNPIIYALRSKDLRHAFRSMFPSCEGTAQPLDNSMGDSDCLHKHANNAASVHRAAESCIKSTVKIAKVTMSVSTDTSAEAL

Glucocorticoid = Glucocorticoid (Homo sapiens, UniProt P04150); assay: Lead Profiling Screen – Eurofins Panlabs; type: binding; settings: read-out: % inh at 10 μM
Chain of Glucocorticoid (P04150 whole entry): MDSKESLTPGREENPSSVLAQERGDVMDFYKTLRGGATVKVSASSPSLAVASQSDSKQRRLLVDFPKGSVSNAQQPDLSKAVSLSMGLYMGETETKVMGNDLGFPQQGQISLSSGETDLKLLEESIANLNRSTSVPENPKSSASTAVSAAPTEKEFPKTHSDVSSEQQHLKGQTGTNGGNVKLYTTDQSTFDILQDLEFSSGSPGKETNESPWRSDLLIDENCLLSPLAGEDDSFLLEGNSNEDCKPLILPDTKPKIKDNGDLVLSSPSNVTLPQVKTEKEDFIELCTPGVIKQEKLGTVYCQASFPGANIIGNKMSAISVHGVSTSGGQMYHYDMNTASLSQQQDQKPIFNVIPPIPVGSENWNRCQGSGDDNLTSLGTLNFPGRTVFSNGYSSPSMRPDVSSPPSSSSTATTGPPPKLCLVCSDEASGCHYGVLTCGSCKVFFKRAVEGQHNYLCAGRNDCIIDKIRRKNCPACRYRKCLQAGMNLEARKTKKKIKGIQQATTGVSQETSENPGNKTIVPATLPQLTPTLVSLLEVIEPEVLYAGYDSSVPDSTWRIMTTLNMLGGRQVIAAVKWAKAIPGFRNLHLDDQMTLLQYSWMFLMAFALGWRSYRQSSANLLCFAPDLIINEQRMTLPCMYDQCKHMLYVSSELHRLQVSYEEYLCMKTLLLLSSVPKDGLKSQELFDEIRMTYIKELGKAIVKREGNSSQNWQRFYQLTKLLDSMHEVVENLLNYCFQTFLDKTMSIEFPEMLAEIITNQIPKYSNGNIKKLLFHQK

Glutamate, Kainate = assay: Lead Profiling Screen – Eurofins Panlabs; type: binding, rat
Muscarinic M2 = Muscarinic M2 (Homo sapiens, UniProt P08172); assay: Lead Profiling Screen – Eurofins Panlabs; type: binding; settings: read-out: % inh at 10 μM
Chain of Muscarinic M2 (P08172 whole entry): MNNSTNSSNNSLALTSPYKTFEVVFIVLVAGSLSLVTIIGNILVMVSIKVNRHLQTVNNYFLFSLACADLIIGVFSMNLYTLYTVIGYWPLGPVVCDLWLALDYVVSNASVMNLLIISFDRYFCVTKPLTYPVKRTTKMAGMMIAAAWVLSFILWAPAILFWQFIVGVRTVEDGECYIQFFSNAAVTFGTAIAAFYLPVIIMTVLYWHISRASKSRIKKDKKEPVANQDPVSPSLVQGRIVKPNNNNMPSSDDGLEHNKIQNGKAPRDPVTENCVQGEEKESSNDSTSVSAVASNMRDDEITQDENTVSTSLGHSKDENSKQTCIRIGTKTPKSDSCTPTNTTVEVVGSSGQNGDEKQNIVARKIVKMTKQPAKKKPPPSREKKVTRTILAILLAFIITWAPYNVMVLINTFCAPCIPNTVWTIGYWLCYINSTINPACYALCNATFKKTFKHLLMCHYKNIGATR

Muscarinic M3 = Muscarinic M3 (Homo sapiens, UniProt P20309); assay: Lead Profiling Screen – Eurofins Panlabs; type: binding; settings: read-out: % inh at 10 μM
Chain of Muscarinic M3 (P20309 whole entry): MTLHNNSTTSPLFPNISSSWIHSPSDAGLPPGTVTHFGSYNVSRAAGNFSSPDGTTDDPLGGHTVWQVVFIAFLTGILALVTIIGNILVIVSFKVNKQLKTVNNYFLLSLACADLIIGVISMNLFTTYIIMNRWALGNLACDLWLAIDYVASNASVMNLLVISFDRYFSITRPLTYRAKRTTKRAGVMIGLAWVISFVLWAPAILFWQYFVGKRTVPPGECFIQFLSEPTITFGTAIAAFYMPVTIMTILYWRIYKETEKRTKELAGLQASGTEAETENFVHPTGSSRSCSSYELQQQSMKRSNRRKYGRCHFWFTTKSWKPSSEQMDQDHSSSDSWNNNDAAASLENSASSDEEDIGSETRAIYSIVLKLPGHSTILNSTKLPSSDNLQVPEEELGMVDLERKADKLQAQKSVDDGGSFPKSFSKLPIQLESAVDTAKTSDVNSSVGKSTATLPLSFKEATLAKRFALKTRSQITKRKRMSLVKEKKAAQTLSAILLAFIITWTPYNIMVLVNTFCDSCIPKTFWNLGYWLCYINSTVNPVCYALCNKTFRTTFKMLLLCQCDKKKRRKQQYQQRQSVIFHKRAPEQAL

[1] = target: Serotonin (5-Hydroxytryptamine) 5-HT2B (Homo sapiens, UniProt P41595); assay: Lead Profiling Screen – Eurofins Panlabs; type: binding; settings: read-out: % inh at 10 μM
Chain of Serotonin (5-Hydroxytryptamine) 5-HT2B (P41595 whole entry): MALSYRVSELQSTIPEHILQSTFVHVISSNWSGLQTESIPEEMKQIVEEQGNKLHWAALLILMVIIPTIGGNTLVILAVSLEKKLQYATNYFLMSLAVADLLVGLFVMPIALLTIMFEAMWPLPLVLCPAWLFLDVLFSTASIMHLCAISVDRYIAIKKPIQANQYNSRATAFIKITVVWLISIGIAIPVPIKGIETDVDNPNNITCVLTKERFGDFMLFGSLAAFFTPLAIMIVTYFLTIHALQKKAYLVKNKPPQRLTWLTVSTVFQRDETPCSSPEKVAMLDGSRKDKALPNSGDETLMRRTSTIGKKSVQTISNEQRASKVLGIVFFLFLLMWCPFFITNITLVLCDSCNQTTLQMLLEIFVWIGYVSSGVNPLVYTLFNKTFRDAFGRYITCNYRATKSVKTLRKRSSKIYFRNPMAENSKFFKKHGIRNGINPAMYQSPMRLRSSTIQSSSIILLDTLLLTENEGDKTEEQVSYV

Transporter, GABA = assay: Lead Profiling Screen – Eurofins Panlabs; type: binding, rat

Chain of human M1 (P11229 whole entry): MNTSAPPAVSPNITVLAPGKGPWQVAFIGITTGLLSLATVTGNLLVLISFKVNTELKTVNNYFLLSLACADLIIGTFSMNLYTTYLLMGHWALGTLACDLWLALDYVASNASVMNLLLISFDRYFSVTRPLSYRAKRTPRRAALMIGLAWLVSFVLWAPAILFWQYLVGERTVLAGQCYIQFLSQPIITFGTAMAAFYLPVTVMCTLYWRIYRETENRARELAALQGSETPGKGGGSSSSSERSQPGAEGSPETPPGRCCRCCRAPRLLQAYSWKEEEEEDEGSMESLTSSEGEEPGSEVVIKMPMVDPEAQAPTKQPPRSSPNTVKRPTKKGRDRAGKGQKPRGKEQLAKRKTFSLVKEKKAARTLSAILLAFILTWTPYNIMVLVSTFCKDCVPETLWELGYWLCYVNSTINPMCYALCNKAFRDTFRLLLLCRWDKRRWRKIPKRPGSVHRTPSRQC
Chain of human M2 (P08172 whole entry): as the sequence (P08172 whole entry) above

Cc1nc(C)c2c(n1)sc1c(NCc3ccc(C(C)(C)O)cc3)nccc12 [22g]
human M1 %Ach Max (human M1): inactive
human M1 EC50 (human M1): inactive
EC50 (human M2): 6.2 µM
human M2 %Ach Max (human M2): [46] %Ach Max
inhibition at 10 µM (Adrenergic α1D): 5%
inhibition at 10 µM (Cannabinoid CB1): -4%
inhibition at 10 µM (Glucocorticoid): -10%
% inh at 10 μM (Glutamate, Kainate): -8%
inhibition at 10 µM (Muscarinic M2): 10%
inhibition at 10 µM (Muscarinic M3): 4%
inhibition at 10 µM [1]: 16%
% inh at 10 μM (Transporter, GABA): 0%
